# In US7728012B2, “Carboxamide compounds and their use as calpain inhibitors” (Abbott GmbH & Co. KG, priority 2006, dated 2010):
# Experiments:
# Assay type in all cases: biochemical
# [1] = molecular target: T1, cathepsin L isolated from human liver (Homo sapiens, UniProt P07711); assay: Cathepsin L kinetic fluorescence enzyme inhibition assay; conditions: selectivity ratio versus calpain I
# T1 construct: cathepsin L—isolated from human liver; purchased Calbiochem 219402; host or cells: human liver (tissue isolate)
# T1 sequence (P07711 114-333): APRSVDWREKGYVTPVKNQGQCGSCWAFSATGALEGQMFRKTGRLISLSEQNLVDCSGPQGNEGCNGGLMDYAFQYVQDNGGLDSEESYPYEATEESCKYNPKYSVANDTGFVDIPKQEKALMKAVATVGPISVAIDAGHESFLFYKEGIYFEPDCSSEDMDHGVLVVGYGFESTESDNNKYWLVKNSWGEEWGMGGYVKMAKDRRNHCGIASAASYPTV
# Method: (§1) The following solutions and buffers were employed: • HBS (for 40 ml): 800 μl M HEPES; 2.16 ml 100 mM KCl; 4.8 ml 1M NaCl; 3.59 ml 5% glucose; 60 μl μM MgSO4; 400 μl 100 mM Na pyruvate, 28.19 ml water; pH 7.2-7.5. • lysis buffer (for 20 ml): 400 μl M Tris pH 8.2; 2.74 ml 1M NaCl; 520 μl 0.5M EDTA; 2 ml 10% triton X-100; 0.8 ml (=1:25) CompletePlus (1 tablet/2 ml H2O); 200 μl 100 mM Pefabloc; 13.34 ml water, pH 8.2. • TBST (10×) (for 1 l): 100 mM Tris (12.1 g); 1.5M NaCl (87 g); 1% Tween 20 (10 g), adjusted to pH 8. I Enzyme Inhibition In Vitro: • Testing for blockade of the corresponding enzymic activities was carried out by means of kinetic fluorescence assays (excitation 390 nm, emission 460 nm). • Apparent Ki values were calculated from the experimentally determined IC50 values by the Cheng-Prussoff relation assuming a reversible competitive enzyme inhibition. The Km values of the substrates used under the assay conditions indicated above were: 90 μM (Z-Phe-Arg-AMC, cathepsin B), 10 μM (Z-Gly-Pro-Arg-AMC, cathepsin K), 2 μM (Z-Phe-Arg-AMC, cathepsin L), and 30 μM (Z-Val-Val-Arg-AMC, cathepsin S). • The indicated Ki values are averages of the inhibition constants calculated on the basis of 2 to 4 independent dose-effect plots.
# (§2) The following assays were used: • 1. Calpain I: • 20 nM calpain-I—isolated from human erythrocytes (Calbiochem #208713), 100 μM Suc-Leu-Tyr-AMC (Bachem #1-1355) as substrate in buffer with 62 mM imidazole, 0.3 mM CaCl2, 0.10% CHAPS, 0.05% BSA, 1 mM DTT at pH 7.3 and room temperature. • 2. Cathepsin B: • 0.25 nM cathepsin B—isolated from human liver (Calbiochem #219362), 100 μM Z-Phe-Arg-AMC (Bachem #I-1160) as substrate 50 mM MES, 2 mM EDTA, 0.05% Brij 35, 2.5 mM L-cysteine, pH 6.0, room temperature. • 3. Cathepsin K: • 3 nM cathepsin K—activated from recombinant human procathepsin K from E. coli (Calbiochem #342001), 10 μM Z-Gly-Pro-Arg-AMC (Biomol #P-142) as substrate in 50 mM MES, 2 mM EDTA, 0.05% Brij 35, 2.5 mM L-cysteine, pH 6.0, room temperature. • 4. Cathepsin L: • 1 nM cathepsin L—isolated from human liver (Calbiochem #219402), 2 μM Z-Phe-Arg-AMC (Bachem #1-1160) as substrate in 50 mM MES, 2 mM EDTA, 0.05% Brij 35, 2.5 mM L-cysteine, pH 6.0, room temperature. • 5. Cathepsin S: • 0.5 nM recombinant human cathepsin S from E. coli (Calbiochem #219343), 20 μM Z-Val-Val-Arg-AMC (Bachem #1-1540) as substrate in 50 mM MES, 2 mM EDTA, 0.05% Brij 35, 2.5 mM L-cysteine, pH 6.0, room temperature. • The results of the in vitro determination are indicated in Table 1. The following abbreviations are used in Table 1: • The “Calpain activity” column, ++ stands for a calpain Ki (Ki(calpain)) of ≦40 nM and + means: 40 nM<Ki(Calpain)≦100 nM. • The “Sel. cat. B” column indicates the Ki(cathepsin B)/Ki(calpain) ratio. In this connection, ++ means a Ki(cathepsin B)/Ki(calpain) ratio of ≧30 and + means 10≦Ki(cathepsin B)/Ki(calpain)<30. • The “Sel. cat. K” column indicates the Ki(cathepsin K)/Ki(calpain) ratio. In this connection, ++ means a Ki(cathepsin K)/Ki(calpain) ratio of ≧30 and + means 10≦Ki(cathepsin K)/Ki(calpain)<30. • The “Sel. cat. L” column indicates the Ki(cathepsin L)/Ki(calpain) ratio. In this connection, ++ means a Ki(cathepsin L)/Ki(calpain) ratio of ≧50 and + means 30≦Ki(cathepsin L)/Ki(calpain)<50. • The “Sel. cat. S” column indicates the Ki(cathepsin S)/Ki(calpain) ratio. In this connection, ++ means a Ki(cathepsin S)/Ki(calpain) ratio of ≧100 and + means 50≦Ki(cathepsin S)/Ki(calpain)<100.
# [2] = molecular target: T2, calpain-I isolated from human erythrocytes (Homo sapiens, UniProt P07384); assay: Calpain I kinetic fluorescence enzyme inhibition assay; conditions: apparent Ki from IC50 by Cheng-Prussoff; average of 2 to 4 dose-effect plots
# T2 construct: calpain-I—isolated from human erythrocytes; purchased Calbiochem 208713; host or cells: human erythrocytes (tissue isolate)
# T2 sequence (P07384 1-714): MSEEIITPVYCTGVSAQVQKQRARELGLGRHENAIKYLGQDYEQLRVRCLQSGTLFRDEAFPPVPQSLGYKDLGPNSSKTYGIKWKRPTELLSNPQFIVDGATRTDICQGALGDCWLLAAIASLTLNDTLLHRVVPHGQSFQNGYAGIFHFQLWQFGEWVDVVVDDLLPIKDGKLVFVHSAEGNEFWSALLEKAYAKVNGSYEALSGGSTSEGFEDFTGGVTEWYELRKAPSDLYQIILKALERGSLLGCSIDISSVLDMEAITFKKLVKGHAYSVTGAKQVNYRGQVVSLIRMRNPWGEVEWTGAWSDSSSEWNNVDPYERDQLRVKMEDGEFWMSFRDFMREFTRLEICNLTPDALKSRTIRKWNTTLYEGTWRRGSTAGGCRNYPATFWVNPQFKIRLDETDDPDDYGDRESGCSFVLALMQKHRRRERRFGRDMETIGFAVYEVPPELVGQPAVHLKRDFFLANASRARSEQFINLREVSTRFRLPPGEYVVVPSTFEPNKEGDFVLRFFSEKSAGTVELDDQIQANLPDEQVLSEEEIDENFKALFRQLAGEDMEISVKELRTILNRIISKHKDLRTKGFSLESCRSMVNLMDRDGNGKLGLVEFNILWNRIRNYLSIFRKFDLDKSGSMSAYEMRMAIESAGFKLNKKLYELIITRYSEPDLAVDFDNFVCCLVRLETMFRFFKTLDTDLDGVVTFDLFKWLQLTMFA
# T2 sequence (P04632 1-268 partner): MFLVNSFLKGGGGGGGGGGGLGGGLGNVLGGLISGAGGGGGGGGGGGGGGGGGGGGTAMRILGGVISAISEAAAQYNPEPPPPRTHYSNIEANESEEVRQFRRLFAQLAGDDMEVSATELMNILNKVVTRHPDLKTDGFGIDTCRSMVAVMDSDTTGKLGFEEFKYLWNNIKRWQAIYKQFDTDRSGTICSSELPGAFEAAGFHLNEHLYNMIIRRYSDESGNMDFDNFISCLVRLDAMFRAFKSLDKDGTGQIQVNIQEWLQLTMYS
# Method: as §1, §2
# [3] = molecular target: T3, recombinant human cathepsin S (Homo sapiens, UniProt P25774); assay: Cathepsin S kinetic fluorescence enzyme inhibition assay; conditions: selectivity ratio versus calpain I
# T3 construct: purchased Calbiochem 219343; host or cells: E. coli
# T3 sequence (P25774 115-331): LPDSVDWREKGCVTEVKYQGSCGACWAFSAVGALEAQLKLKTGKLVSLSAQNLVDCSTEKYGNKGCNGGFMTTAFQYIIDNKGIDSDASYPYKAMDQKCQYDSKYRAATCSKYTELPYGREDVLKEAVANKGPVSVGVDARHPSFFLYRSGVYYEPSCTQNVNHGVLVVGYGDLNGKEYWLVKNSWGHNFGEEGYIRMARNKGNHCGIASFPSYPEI
# Method: as §1, §2
Structure (SMILES),Ki [2],Sel cat. L (Ki(cathepsin L)/Ki(calpain) ratio) [1],Sel cat. S (Ki(cathepsin S)/Ki(calpain) ratio) [3]
"COc1ccc(-c2cn(-c3ncccc3C(=O)NC(Cc3ccccc3)C(=O)C(N)=O)cn2)cc1 (stereo not drawn) [Example 13, N-(3-Amino-1-benzyl-2,3-dioxopropyl)-2-[4-(4-methoxyphenyl)-1H-imidazol-1-yl]nicotinamide]",40 to 100 nM,++ (Ki(cathepsin L)/Ki(calpain) ratio of ≧50),+ (50≦Ki(cathepsin S)/Ki(calpain)<100)
"Cl.NC(=O)C(=O)C(Cc1ccccc1)NC(=O)c1cccnc1-n1cnc(-c2ccc(C(F)(F)F)cc2)c1 (stereo not drawn) [Example 18, N-(3-Amino-1-benzyl-2,3-dioxopropyl)-2-{4-[4-(trifluoromethyl)phenyl]-1H-imidazol-1-yl}nicotinamide hydrochloride]",≤ 40 nM,+ (30≦Ki(cathepsin L)/Ki(calpain)<50),++ (Ki(cathepsin S)/Ki(calpain) ratio of ≧100)
"CCCCC(NC(=O)c1cc(Cl)cnc1-n1cnc(-c2ccccc2)c1)C(=O)C(N)=O.Cl (stereo not drawn) [Example 24, N-{1-[Amino(oxo)acetyl]pentyl}-5-chloro-2-(4-phenyl-1H-imidazol-1-yl)nicotinamide hydrochloride]",≤ 40 nM,+ (30≦Ki(cathepsin L)/Ki(calpain)<50),–
"Cc1cn(-c2ncccc2C(=O)NC(Cc2ccccc2)C(=O)C(N)=O)nc1-c1ccccc1 (stereo not drawn) [Example 86, N-[3-Amino-2,3-dioxo-1-(phenylmethyl)propyl]-2-(4-methyl-3-phenyl-1H-pyrazol-1-yl)pyridine-3-carboxamide]",≤ 40 nM,++ (Ki(cathepsin L)/Ki(calpain) ratio of ≧50),–
"COCc1cn(-c2ncccc2C(=O)NC(Cc2ccccc2)C(=O)C(N)=O)nc1-c1ccc(F)cc1 (stereo not drawn) [Example 170, N-[3-Amino-2,3-dioxo-1-(phenylmethyl)propyl]-2-{3-(4-fluorophenyl)-4-[(methyloxy)methyl]-1H-pyrazol-1-yl}pyridine-3-carboxamide]",40 to 100 nM,+ (30≦Ki(cathepsin L)/Ki(calpain)<50),–
"NC(=O)C(=O)C(Cc1ccccc1)NC(=O)c1cccnc1-n1cc(CN2CCCC2)c(-c2cccc(C(F)(F)F)c2)n1 (stereo not drawn) [Example 178, N-[3-Amino-2,3-dioxo-1-(phenylmethyl)propyl]-2-{4-(pyrrolidin-1-ylmethyl)-3-[3-(trifluoromethyl)phenyl]-1H-pyrazol-1-yl}pyridine-3-carboxamide]",40 to 100 nM,–,++ (Ki(cathepsin S)/Ki(calpain) ratio of ≧100)
"NC(=O)C(=O)C(Cc1ccccc1)NC(=O)c1cccnc1-n1cc(COc2ccccc2)c(-c2ccc(F)cc2)n1 (stereo not drawn) [Example 179, N-[3-Amino-2,3-dioxo-1-(phenylmethyl)propyl]-2-{3-(4-fluorophenyl)-4-[(phenyloxy)methyl]-1H-pyrazol-1-yl}pyridine-3-carboxamide]",–,+ (30≦Ki(cathepsin L)/Ki(calpain)<50),++ (Ki(cathepsin S)/Ki(calpain) ratio of ≧100)

# Further lines, with some results ahead:
Ki [2],Structure (SMILES),Sel cat. L (Ki(cathepsin L)/Ki(calpain) ratio) [1],Sel cat. S (Ki(cathepsin S)/Ki(calpain) ratio) [3]
≤ 40 nM,"CCCCC(NC(=O)c1cccnc1-n1cnc(-c2ccccc2)c1)C(=O)C(N)=O (stereo not drawn) [Example 2, N-{1-[Amino(oxo)acetyl]pentyl}-2-(4-phenyl-1H-imidazol-1-yl)nicotinamide]",++ (Ki(cathepsin L)/Ki(calpain) ratio of ≧50),–
≤ 40 nM,"NC(=O)C(=O)C(Cc1ccccc1)NC(=O)c1cccnc1-n1cnc(-c2ccc(Cl)cc2)c1 (stereo not drawn) [Example 9, N-(3-Amino-1-benzyl-2,3-dioxopropyl)-2-[4-(4-chlorophenyl)-1H-imidazol-1-yl]nicotinamide]",+ (30≦Ki(cathepsin L)/Ki(calpain)<50),++ (Ki(cathepsin S)/Ki(calpain) ratio of ≧100)
≤ 40 nM,"CCCCC(NC(=O)c1cccnc1-n1cnc(-c2ccc(N3CCOCC3)cc2)c1)C(=O)C(N)=O.Cl (stereo not drawn) [Example 15, N-{1-[Amino(oxo)acetyl]pentyl}-2-[4-(4-morpholin-4-ylphenyl)-1H-imidazol-1-yl]nicotinamide hydrochloride]",++ (Ki(cathepsin L)/Ki(calpain) ratio of ≧50),+ (50≦Ki(cathepsin S)/Ki(calpain)<100)
≤ 40 nM,"CCCCC(NC(=O)c1cccnc1-n1cnc(-c2ccc(C(F)(F)F)cc2)c1)C(=O)C(N)=O.Cl (stereo not drawn) [Example 17, N-{1-[Amino(oxo)acetyl]pentyl}-2-{4-[4-(trifluoromethyl)phenyl]-1H-imidazol-1-yl}nicotinamide hydrochloride]",++ (Ki(cathepsin L)/Ki(calpain) ratio of ≧50),+ (50≦Ki(cathepsin S)/Ki(calpain)<100)
